Measured values reported in patent publication US20080103209A1, “Compounds And Methods For Treating Non-Inflammatory Pain Using Ppar Alpha Agonists” (The Regents of The University of California, priority 2004, published 2008).

How the values were obtained:
mice = assay: Formalin-evoked pain behavior (hind paw licking); type: in vivo, mouse; conditions: for early and late phase formalin-evoked nociception, combination with anandamide: 0.1 μg/paw of each; for anti-inflammatory effect (paw weight) after formalin: 50 μg/paw, 45 minutes after intraplantar formalin, C57BL/6J mice
Method: Administration of formalin into the mouse hind paw evokes a pain behavior consisting of two temporally distinct phases of licking and flexing of the injected limb (Dubuisson, et al., Pain 4, 161-74 (1977)). The first phase, which starts immediately after formalin injection and lasts 5-10 min, is due to activation of nociceptive fibers and is accompanied by the local release of nitric oxide and adenosine [Dickenson, et al., Neurosci Lett 83, 207-11 (1987); Omote, et al., Brain Res 787, 161-4 (1998); Omote et al., 2000; Liu, et al., J Neurochem 80, 562-70 (2002)]. Following a quiescent interval of 10-15 minutes, a second phase of nociceptive behavior appears, which is associated with local inflammation [Rosland, et al., Pain 42, 235-42 (1990)] and central sensitization [Coderre, et al., J Neurosci 12, 3665-70 (1992)]. […] (2001); Farquuar-Smith, 2002]. […] The effects of PEA in C57BL/6J mice in which the PPARα gene had been deleted by homologous recombination (PPARα^−/−)[Lee, et al., Mol Cell Biol 15, 3012-22 (1995)] were examined to determine whether PPARα contributes to these properties.
Although PPARα is known to regulate the inflammatory response [Devchand, et al., Nature 384, 39-43. (1996); Cabrero, et al., Curr Drug Targets Inflamm Allergy 1, 243-8 (2002); Berger, et al., Annu Rev Med 53, 409-35 (2002); Chinetti, et al., Inflamm Res 49, 497-505 (2000)], its roles in the modulation of acute nociceptive pain remain unexplored. A series of structurally diverse PPAR-α agonists were tested for their ability to reduce pain behavior in an animal model of chemical tissue damage. Injection of formalin into the mouse hind paw evokes a nocifensive behavior consisting of two distinct phases. The first phase results from direct activation of nociceptive fibers and starts immediately after formalin administration, while the second phase develops over a period of approximately 60 min and is associated with local inflammation and central sensitization.
Mice received intraplantar injections of formalin (5% vol/vol, 10 μl) in saline containing polyethylene glycol (5%) and Tween 80 (5%). The duration of paw licking was monitored by an observer for periods of 0-15 min (early or first phase) and 15-45 min (late or second phase) immediately after formalin administration.
Formalin test. Formalin (5%, 10 μl)-induced paw licking was monitored for 0-15 min (first phase) and 15-45 min (second phase) as described (Calignano, et al., Nature 394, 277-81 (1998).

PPARα mRNA = PPARα mRNA expression in inflamed mouse skin; type: in vivo; conditions: topical to inflamed abdominal skin; PEA 450 μg, GW7647 755 μg
Swiss mice [1] = assay: Sciatic nerve ligation neuropathy, mechanical and thermal hyperalgesia; type: in vivo, mouse; conditions: for mechanical and thermal pain thresholds in the non-ligated paw of neuropathic mice: data not shown; for neuropathic hypersensitivity (mechanical and thermal pain thresholds), ligated limb: single s.c. dose day 7 and 14 after surgery, 60 min before test, PEA, GW7647 30 mg-kg^−1, gabapentin 60 mg-kg^−1
Method: To examine whether PPARα agonists modulate the persistent pain hypersensitivity associated with nerve injury, peripheral neuropathy was produced in mice by partially ligating the left sciatic nerve, a surgical procedure that results in the development of mechanical and thermal hyperalgesia in the operated limb (Bennett et al., Pain, 33, 87 (1988)).
Sciatic nerve ligation was performed essentially following the method of Bennett and Xie (Bennett et al., Pain 33, 87 (1988)). Briefly, male Swiss mice were anesthetized with sodium pentobarbital, the left sciatic nerve was exposed at mid-thigh level through a small incision and one-third to one-half of the nerve thickness was tightly ligated with a silk thread. The wound was closed with a single muscle suture and skin clips, and dusted with streptomycin powder. In sham-operated animals, the nerve was exposed but not ligated.
(§1) Mechanical hyperalgesia was determined by measuring paw withdrawal thresholds to an increasing pressure onto the dorsal surface of the paw using an analgesimeter (Ugo Basile, Italy) with a cut-off of 250 g. Withdrawal thresholds were measured on both the ipsilateral paw (inflamed or ligated) and contralateral paw (uninflamed or unligated) 60 min after subcutaneous drug administration.
(§2) Thermal hyperalgesia was assessed by the methods of Hargreaves (Hargreaves et al., Pain, 32, 77 (1988)) by measuring the latency to withdraw the hind paws from a focussed beam of radiant heat applied to the plantar surface, using an appropriate apparatus (Ugo Basile, Italy). The cut-off time was set at 30 sec. The mice were habituated to the apparatus for 10-15 min two days prior to the experiment.

human CB2 = molecular target: T1, human CB2 (Homo sapiens, UniProt P34972); assay: CB2 receptor binding, [3H]-WIN-55212-2 displacement in CB2-overexpressing CHO cell membranes
T1 construct: purchased Perkin-Elmer, Boston, Mass; host or cells: CHO cells (membranes)

Swiss mice [2] = assay: Complete Freund's adjuvant-induced arthritis, hyperalgesia; type: in vivo, mouse; conditions: 30 mg-kg^−1 s.c., 60 min before test, day 7 and 14 after CFA
Method: as §1, §2

T1 sequence (P34972 whole entry): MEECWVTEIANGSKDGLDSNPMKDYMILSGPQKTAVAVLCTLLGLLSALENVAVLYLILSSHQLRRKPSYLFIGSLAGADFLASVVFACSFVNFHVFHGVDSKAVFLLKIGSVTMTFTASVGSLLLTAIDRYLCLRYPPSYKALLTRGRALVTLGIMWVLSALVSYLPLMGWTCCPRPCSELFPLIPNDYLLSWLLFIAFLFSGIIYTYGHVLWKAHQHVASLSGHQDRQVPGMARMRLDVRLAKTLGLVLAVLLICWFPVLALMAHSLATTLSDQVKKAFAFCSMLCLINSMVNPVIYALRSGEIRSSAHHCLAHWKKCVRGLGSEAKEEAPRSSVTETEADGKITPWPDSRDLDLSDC

SMILES | early and late phase formalin-evoked nociception, combination with anandamide (mice; Swiss mice) | anti-inflammatory effect (paw weight) after formalin (mice) | formalin pain in PPARα−/− mice (mice; 50 μg i.pl.) | first- and second-phase nociception (mice; Swiss mice, i.pl. together with formalin, GW7647 0.1-50 μg, Wy-14643 50-200 μg, fenofibric acid 100-400 μg) | average half-maximal effective dose (ED50) to reduce first-phase pain (mice; intraplantar with formalin, Swiss mice, ten experiments) | PPARα mRNA expression (PPARα mRNA) | mechanical and thermal pain thresholds in the non-ligated paw of neuropathic mice (Swiss mice [1]) | neuropathic hypersensitivity (mechanical and thermal pain thresholds), ligated limb (Swiss mice [1]) | [^3H]-WIN-55212-2 Binding (% of control) (human CB2; Concentration 1 μM) | [^3H]-WIN-55212-2 Binding (% of control) (human CB2; Concentration 10 μM) | mechanical and thermal sensitivity in CFA arthritis (Swiss mice [2]) | ED50 of antinociceptive effect in the formalin model (mice; i.pl.) | phase I and II formalin pain in wild-type mice (mice; wild-type C57BL6 mice, 50 μg i.pl.) | mechanical sensitivity thresholds after repeated dosing, vs vehicle-treated mice (Swiss mice [1]; 30 mg-kg^−1 s.c. once a day for 14 consecutive days from surgery) | dose dependence of antihyperalgesic response (mechanical withdrawal, day 14) (Swiss mice [1]; s.c.)
CC(C)(Sc1ccc(CCN(CCCCC2CCCCC2)C(=O)NC2CCCCC2)cc1)C(=O)O [GW7647] | Mimicry of this synergism | absence of anti-inflammatory effects | failed to respond | attenuated first- and second-phase nociception in a dose-dependent manner | 9.9 µg | increase in PPARα mRNA expression | did not affect | mimicked | 102.1 ± 4.0 % of control | 91.6 ± 4.1 % of control | suppressed | – | – | – | –
CCCCCCCCCCCCCCCC(=O)NCCO [PEA, palmitoylethanolamide] | synergistically inhibit | absence of anti-inflammatory effects | absent | – | – | increase in PPARα mRNA expression | did not affect | reversal of neuropathic hypersensitivity | 106.2 ± 2.5 % of control | 98.5 ± 4.2 % of control | suppressed | 7.4 µg | attenuated these responses only in wild-type animals | significantly higher | dose-dependent
